“Also recorded” adds a separate entry of the source.
System: SARS-CoV-2 Omicron variant (B.1.1.529-BA.1)
Type: cell-based
Conditions: up to 20 µM; Omicron B.1.1.529-BA.1

C[C@H](NC(=O)[C@H](Cc1ccc(O)cc1)NC(=O)OCc1ccccc1)C(=O)C=[N+]=[N-]
inhibitory activity against SARS-CoV-2 Omicron in HNEC ALI cultures (in words): no inhibitory activity; also recorded: unable to block entry

Source: article PMC10055926
